Among the test systems are SNB-75 CNS; MALME-3M melanoma; HT29 colon; A549 NSCLC; SF-295 CNS; SK-OV-3 ovarian; RPMI-8226 leukemia; CCRF-CEM leukemia; NCI-H522 lung; MDA-MB-435.
What all share (assay): DTP human tumour cell line panel, 48 h

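All cell lines were grown in 96-well plates and treated with compound for 48 hours. Abbreviation: GI50, concentration required for 50% inhibition of growth. TGI denotes the concentration required for complete inhibition of growth.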 A value given as a limit tells only on which side of the number the result lay.

Turning to `Cc1cc(C)nc(NS(=O)(=O)c2ccc(Nc3c4ccccc4nc4c(C(=O)N5CCN(CCOS(C)(=O)=O)CC5)ccc(Cl)c34)cc2)n1`, the concentration for total growth inhibition (TGI) with SNB-75 CNS, in the test on MALME-3M melanoma, with HT29 colon, with A549 NSCLC, with SF-295 CNS and in the test on SK-OV-3 ovarian was more than 100 µM throughout. Further, the TGI with RPMI-8226 leukemia and in the test with CCRF-CEM leukemia was more than 100 µM each time.
On to `O=C(c1ccccc1)[C@H]1Nc2cnccc2C2c3ccccc3CC21` (stereo partly drawn), for which the TGI (usually the concentration giving total growth inhibition) in the test on NCI-H522 lung was determined as 8.56 µM; with SNB-75 CNS, 71.9 µM; in the test with MALME-3M melanoma, 27.4 µM; with HT29 colon, 50.5 µM; in the test on A549 NSCLC, 74.5 µM; with SF-295 CNS, 48.3 µM. For the same compound, the results for the total growth inhibition concentration (TGI) in the test with SK-OV-3 ovarian, in the test with RPMI-8226 leukemia and in the test with CCRF-CEM leukemia were 44.8 µM, 34.4 µM and 17.8 µM, respectively.
For the compound `COC(=O)/C(=N\NC(=S)NN)C(C(=O)C(=O)Nc1ccccc1C(N)=O)c1nc2ccccc2[nH]c1=O` (stereo not drawn), the TGI in the test with NCI-H522 lung, with MALME-3M melanoma, with A549 NSCLC, in the test with SF-295 CNS, in the test on RPMI-8226 leukemia and with CCRF-CEM leukemia was more than 100 µM each time.
As for `OC(c1ccco1)C(F)(F)c1nc2ccccc2o1` (stereo not drawn), the TGI with MDA-MB-435, with SNB-75 CNS, in the test on HT29 colon, with SF-295 CNS, in the test with SK-OV-3 ovarian and in the test with RPMI-8226 leukemia was more than 100 µM throughout. In the test on CCRF-CEM leukemia, this compound returned a TGI of more than 100 µM.
Consider `O=c1c2cc3c(=O)n(CCc4ccccc4CO)c(=O)c3cc2c(=O)n1CCc1ccccc1CO`, for which the TGI in the test on NCI-H522 lung, with SNB-75 CNS, with MALME-3M melanoma, with HT29 colon, in the test with A549 NSCLC and in the test on SF-295 CNS was more than 100 µM in each case. Moreover, the TGI in the test with SK-OV-3 ovarian and in the test with CCRF-CEM leukemia was more than 100 µM in each case.
On to `NC(CCSCC(F)F)C(=O)O` (stereo not drawn), for which the concentration for total growth inhibition (TGI) in the test with NCI-H522 lung, with SNB-75 CNS, in the test with MALME-3M melanoma, in the test with HT29 colon, with A549 NSCLC and with SF-295 CNS was more than 100 µM throughout. In the test on CCRF-CEM leukemia, this compound showed a total growth inhibition concentration (TGI) of more than 100 µM.
For the compound `COc1ccc(CCCCl)c(C2=NCCc3ccccc32)c1`, the TGI in the test with NCI-H522 lung, with MDA-MB-435, in the test with SNB-75 CNS, with HT29 colon, with A549 NSCLC and in the test with SF-295 CNS was more than 100 µM throughout. Also, the TGI was more than 100 µM with SK-OV-3 ovarian, 21.7 µM in the test with RPMI-8226 leukemia and more than 100 µM in the test on CCRF-CEM leukemia.
Turning to `C(=N/Nc1ccc(-c2nc3ccccc3[nH]2)cc1)/c1c(-c2ccccc2)[nH]c2ccccc12`, the concentration for total growth inhibition (TGI) with NCI-H522 lung is 2.02 µM; with MDA-MB-435 it was 0.785 µM; in the test with SNB-75 CNS, 59.9 µM; in the test with SF-295 CNS, 12.7 µM; in the test on SK-OV-3 ovarian it was 20.5 µM; with RPMI-8226 leukemia it was 0.82 µM. In addition, the concentration for total growth inhibition (TGI) in the test with CCRF-CEM leukemia is more than 100 µM.
On to `N#CC(C#N)=Cc1cccc(Oc2ccccc2)c1`, for which the concentration for total growth inhibition (TGI) with NCI-H522 lung is 51.2 µM; in the test with SNB-75 CNS, more than 94.9 µM; with MALME-3M melanoma, 43.4 µM; in the test with HT29 colon, 49.9 µM; in the test on A549 NSCLC it was more than 100 µM; with SF-295 CNS, 45.5 µM. The results for the total growth inhibition concentration (TGI) with SK-OV-3 ovarian, with RPMI-8226 leukemia and in the test on CCRF-CEM leukemia were more than 100 µM, 62.5 µM and more than 100 µM, respectively.
With `CCOC(=O)c1c(NC(=S)Nc2ccc(C)cc2)sc2c1CCN(C)C2`, the total growth inhibition concentration (TGI) was 0.0946 µM in the test on SNB-75 CNS; more than 100 µM with HT29 colon; more than 100 µM in the test with A549 NSCLC; more than 100 µM in the test on SF-295 CNS; more than 100 µM in the test with RPMI-8226 leukemia; more than 100 µM in the test on CCRF-CEM leukemia.
As to `CCOC(=O)C(NC(=O)c1ccc(N=NN(C)C)cc1)C(C)C` (stereo not drawn), the TGI in the test on NCI-H522 lung, with SNB-75 CNS, with MALME-3M melanoma, in the test on HT29 colon, with A549 NSCLC and in the test on SF-295 CNS was more than 100 µM throughout. For the same compound, the total growth inhibition concentration (TGI) in the test with SK-OV-3 ovarian, with RPMI-8226 leukemia and in the test with CCRF-CEM leukemia was more than 100 µM each time.
`NC(=S)N=Nc1c(O)cc(Nc2ccc(Cl)cc2Cl)c2ccccc12`: the TGI was more than 100 µM in the test on MDA-MB-435; 78.5 µM in the test with SNB-75 CNS; more than 100 µM in the test with HT29 colon; more than 100 µM in the test with A549 NSCLC; 45.9 µM in the test with SF-295 CNS; 61.5 µM with SK-OV-3 ovarian.
Turning to `O=C1c2c(c3c4ccc(Br)cc4oc3c3[nH]c4ccccc4c23)C(=O)N1O`, the GI50 (in general, the concentration giving 50% growth inhibition) was 1070 nM in the test on NCI-H522 lung, 3.11 µM with MDA-MB-435, 2840 nM in the test on SK-OV-3 ovarian and 41.8 nM with CCRF-CEM leukemia. Further, the concentration for total growth inhibition (TGI) in the test with NCI-H522 lung, in the test with MDA-MB-435, with SK-OV-3 ovarian and in the test on CCRF-CEM leukemia was more than 100 µM each time.
As for `O=C(NN1C(=O)CSC1c1ccc(Cl)c(Cl)c1)c1ccncc1` (stereo not drawn), the TGI in the test with NCI-H522 lung, in the test with SNB-75 CNS, in the test with MALME-3M melanoma, in the test with HT29 colon, with A549 NSCLC and with SF-295 CNS was more than 100 µM throughout. The concentration for total growth inhibition (TGI) with SK-OV-3 ovarian, in the test with RPMI-8226 leukemia and with CCRF-CEM leukemia was more than 100 µM each time.
Regarding `C=C1CC2C(=O)N(c3ccccc3)C(=O)C2CC1n1[nH]c(=O)n(Cc2ccccc2)c1=O` (stereo not drawn), the TGI in the test on NCI-H522 lung, in the test on SNB-75 CNS, in the test on MALME-3M melanoma, in the test with HT29 colon, in the test on A549 NSCLC and in the test on SF-295 CNS was more than 100 µM each time. In addition, the TGI in the test with SK-OV-3 ovarian, in the test on RPMI-8226 leukemia and in the test on CCRF-CEM leukemia was more than 100 µM each time.
Consider `C/C(=N\Nc1nc2ccccc2s1)c1cccnn1`, for which the concentration for total growth inhibition (TGI) in the test with NCI-H522 lung was 17.7 µM; in the test on MDA-MB-435, more than 100 µM; in the test with SNB-75 CNS it was 30.7 µM; in the test on HT29 colon, more than 100 µM; with A549 NSCLC, more than 100 µM; in the test on SF-295 CNS, 7.2 µM. For the same compound, the values for the TGI with SK-OV-3 ovarian and in the test with RPMI-8226 leukemia were 52.3 µM and more than 100 µM, respectively.
Turning to `C=C1CC=CC(C)(C)C1C/C=C(\C)C(O)CBr` (stereo not drawn), the TGI in the test with NCI-H522 lung is 23.2 µM; in the test with MDA-MB-435, more than 100 µM; in the test on HT29 colon it was more than 100 µM; with A549 NSCLC, more than 100 µM; with SF-295 CNS, more than 100 µM; in the test with SK-OV-3 ovarian, more than 100 µM. Besides, the TGI is 66.8 µM in the test with RPMI-8226 leukemia and more than 100 µM in the test with CCRF-CEM leukemia.
`CC1=C(C(=O)NNC(=O)CC#N)CC(C(=O)NNC(=O)CC#N)=C(C)N1`: the concentration for total growth inhibition (TGI) in the test with MDA-MB-435, in the test with SNB-75 CNS, with HT29 colon, in the test with A549 NSCLC, with SF-295 CNS and in the test on SK-OV-3 ovarian was more than 100 µM throughout.
Take `COC(=O)C(=O)C(C(=O)C(=O)Nc1cc([N+](=O)[O-])ccc1C#N)c1nc2ccccc2[nH]c1=O` (stereo not drawn): the TGI with NCI-H522 lung, with SNB-75 CNS, in the test on MALME-3M melanoma, in the test with HT29 colon, with A549 NSCLC and with SF-295 CNS was more than 100 µM each time. In addition, the TGI in the test on SK-OV-3 ovarian and in the test on CCRF-CEM leukemia was more than 100 µM each time.
With `c1ccc([P+](Cc2csnn2)(c2ccccc2)c2ccccc2)cc1`, the concentration for total growth inhibition (TGI) with NCI-H522 lung, in the test with SNB-75 CNS, with MALME-3M melanoma, with HT29 colon, with A549 NSCLC and in the test on SF-295 CNS was more than 100 µM throughout. Besides, the TGI in the test on SK-OV-3 ovarian, in the test with RPMI-8226 leukemia and in the test on CCRF-CEM leukemia was more than 100 µM in each case.
`NNC(=O)c1cccc2c1Oc1ccccc1S2`: the TGI in the test with MDA-MB-435, with SNB-75 CNS, in the test with HT29 colon, with SF-295 CNS, with SK-OV-3 ovarian and with RPMI-8226 leukemia was more than 100 µM throughout. The TGI with CCRF-CEM leukemia is more than 100 µM.
`CCC1(CC)C(=O)NC(=S)N=C1N`: the total growth inhibition concentration (TGI) in the test on NCI-H522 lung, in the test on SNB-75 CNS, with MALME-3M melanoma, in the test with HT29 colon, in the test on A549 NSCLC and in the test on SF-295 CNS was more than 100 µM throughout. Besides, the TGI in the test on SK-OV-3 ovarian, in the test on RPMI-8226 leukemia and in the test with CCRF-CEM leukemia was more than 100 µM throughout.
For the compound `CCOC(=O)/C(=C/c1ccco1)P(=O)(OCC)OCC`, the TGI in the test on NCI-H522 lung, with SNB-75 CNS, with MALME-3M melanoma, in the test with HT29 colon, with A549 NSCLC and in the test on SF-295 CNS was more than 100 µM each time. Besides, the total growth inhibition concentration (TGI) with SK-OV-3 ovarian, in the test with RPMI-8226 leukemia and with CCRF-CEM leukemia was more than 100 µM in each case.
For `c1ccc(-c2ccc(N=NN3CCCC3)cc2)cc1`, the TGI with NCI-H522 lung, with MDA-MB-435, in the test on SNB-75 CNS, in the test on SF-295 CNS, in the test on SK-OV-3 ovarian and in the test on RPMI-8226 leukemia was more than 100 µM in each case. The same compound gave a TGI in the test with CCRF-CEM leukemia of more than 100 µM.
On to `NC(=O)NC(=NCc1ccccc1)NCc1ccccc1`, for which the TGI in the test with NCI-H522 lung, in the test on HT29 colon, with A549 NSCLC, in the test with SF-295 CNS and with SK-OV-3 ovarian was more than 100 µM throughout.

The values above are taken from PubChem BioAssay (NCI).
